Assay results as given in US5804577A, “Cephalosporin derivatives” (Hoffmann-La Roche Inc., priority 1995, dated 1998).
In brackets after ≈: the same amount, converted by molar mass. Like-named read-outs stand apart in the source and are kept apart here.

What was measured:
Test in all cases: MIC by agar dilution method in Mueller Hinton agar
Assay type in all cases: cell-based
C. freundii 43 = conditions: Citrobacter freundii, 43
Procedure: (§1) In vitro activity was determined by minimum inhibitory concentration in a microorganism spectrum by the agar dilution method in Mueller Hinton agar.

S. viridans group 016 = conditions: Streptococcus viridans, GROUP016
Procedure: as §1

S. pneumoniae Q19 = conditions: Streptococcus pneumoniae
Procedure: as §1

[1] = tested on: P. asaccharolyticus 29743; conditions: Peptoniphilus asaccharolyticus
Procedure: as §1

L. monocytogenes BK23 = conditions: Listeria monocytogenes, BK23
Procedure: as §1

X. maltophilia 1AC739 = conditions: Stenotrophomonas maltophilia
Procedure: as §1

P. vulgaris 1028 = conditions: Proteus vulgaris
Procedure: as §1

H. influenzae 1 = conditions: Haemophilus influenzae
Procedure: as §1

C. difficile ZH1 = conditions: Clostridioides difficile, ZH1
Procedure: as §1

E. cloacae 908SSi = conditions: Enterobacter cloacae, 908SSI
Procedure: as §1

S. agalactiae QK44 = conditions: Streptococcus agalactiae
Procedure: as §1

E. faecalis 6 = conditions: Enterococcus faecalis, 6
Procedure: as §1

S. aureus 6538 = conditions: Staphylococcus aureus, 6538
Procedure: as §1

M. catarrhalis RA21 = conditions: Moraxella catarrhalis
Procedure: as §1

E. cloacae 908R = conditions: Enterobacter cloacae
Procedure: as §1

Acinetobacter sp. 51-156 = conditions: SP.51156
Procedure: as §1

P. aeruginosa 27853 = conditions: Pseudomonas aeruginosa
Procedure: as §1

S. marscescens 69438 = tested on: S. marscescens 69438
Procedure: as §1

B. fragilis ATCC25285 = conditions: Bacteroides fragilis, ATCC25285
Procedure: as §1

S. aureus 734 MRSA = conditions: Staphylococcus aureus, MRSA
Procedure: as §1

M. morganii 6H-137 = conditions: Morganella morganii, 6H137
Procedure: as §1

K. pneumoniae 418 = conditions: Klebsiella pneumoniae, 418
Procedure: as §1

E. coli 25922 = conditions: Escherichia coli, 25922
Procedure: as §1

C. freundii 902 = conditions: Citrobacter freundii, 902
Procedure: as §1

P. mirabilis 2117 = conditions: Proteus mirabilis, 2117
Procedure: as §1

SMILES | MIC (C. freundii 43) [µg/mL] | MIC (S. viridans group 016) [µg/mL] | MIC (S. pneumoniae Q19) [µg/mL] | MIC (L. monocytogenes BK23) [µg/mL] | MIC (H. influenzae 1) [µg/mL] | MIC (E. cloacae 908SSi) [µg/mL] | MIC (S. agalactiae QK44) [µg/mL] | MIC (E. faecalis 6) [µg/mL] | MIC (S. aureus 6538) [µg/mL] | MIC (S. marscescens 69438) [µg/mL] | MIC (S. aureus 734 MRSA) [µg/mL] | further results
Nc1nc(/C(=N/O)C(=O)N[C@@H]2C(=O)N3C(C(=O)O)=C(/C=C4\CCN(c5ccc(O)cc5)C4=O)CS[C@H]23)cs1 [A, (6R,7R)-7-[(Z)-2-(2-Amino-thiazol-4-yl)-2-hydroxyimino-acetylamino]-3-[(E)-1-(4-hydroxy-phenyl)-2-oxo-pyrrolidin-3-ylidenemethyl]-8-oxo-5-thia-1-azabicyclo[4.2.0]oct-2-ene-2-carboxylic acid] | 4 (≈ 7.19 µM) | 0.25 (≈ 0.449 µM) | 0.12 (≈ 0.216 µM) | 4 (≈ 7.19 µM) | 0.25 (≈ 0.449 µM) | 0.25 (≈ 0.449 µM) | 0.25 (≈ 0.449 µM) | 0.5 (≈ 0.898 µM) | 0.25 (≈ 0.449 µM) | 0.5 (≈ 0.898 µM) | 4 (≈ 7.19 µM) | MIC [1]: 0.25 µg/mL (≈ 0.449 µM); MIC (X. maltophilia 1AC739; X. maltophilia 1AC739, read-out: MIC): > 32 µg/mL; MIC (P. vulgaris 1028; P. vulgaris 1028, read-out: MIC): 32 µg/mL (≈ 57.5 µM); MIC (C. difficile ZH1): 8 µg/mL (≈ 14.4 µM); MIC (M. catarrhalis RA21; M. catarrhalis RA21, read-out: MIC): 16 µg/mL (≈ 28.7 µM); MIC (E. cloacae 908R; E. cloacae 908R, read-out: MIC): 16 µg/mL (≈ 28.7 µM); MIC (Acinetobacter sp. 51-156; Acinetobacter sp. 51-156, read-out: MIC): 16 µg/mL (≈ 28.7 µM); MIC (P. aeruginosa 27853; 27853): 4 µg/mL (≈ 7.19 µM); MIC (B. fragilis ATCC25285): 4 µg/mL (≈ 7.19 µM)
C=CC1=C(C(=O)O)N2C(=O)[C@@H](NC(=O)/C(=N\O)c3csc(N)n3)[C@H]2SC1 [I, [6R[6a,7b(Z)]7-(2-Amino-4-thiazolyl)[(hydroxyimino)]acetyl]amino3-ethenyl 8-oxo-5-thia-1-azabicyclo-[4.2.0]oct2-ene-2-carboxylic acid, reference compound] | > 32 | 2 (≈ 5.06 µM) | 0.25 (≈ 0.632 µM) | 16 (≈ 40.5 µM) | 0.5 (≈ 1.26 µM) | 32 (≈ 80.9 µM) | 0.25 (≈ 0.632 µM) | 8 (≈ 20.2 µM) | 0.5 (≈ 1.26 µM) | 16 (≈ 40.5 µM) | > 32 | MIC (X. maltophilia 1AC739; 1AC739): > 32 µg/mL; MIC (P. vulgaris 1028; 1028): 1 µg/mL (≈ 2.53 µM); MIC (M. morganii 6H-137): 8 µg/mL (≈ 20.2 µM); MIC (K. pneumoniae 418): 0.12 µg/mL (≈ 0.303 µM); MIC (E. coli 25922): 0.25 µg/mL (≈ 0.632 µM); MIC (M. catarrhalis RA21; RA21): 1 µg/mL (≈ 2.53 µM); MIC (C. freundii 902): 16 µg/mL (≈ 40.5 µM); MIC (E. cloacae 908R; 908R): > 32 µg/mL; MIC (Acinetobacter sp. 51-156; Acinetobacter): > 32 µg/mL; MIC (P. mirabilis 2117): 0.12 µg/mL (≈ 0.303 µM); MIC (P. aeruginosa 27853; P. aeruginosa 27853, read-out: MIC): > 32 µg/mL
